One test deals with T1, MAO-A (Rattus norvegicus, UniProt P21396).
T1 construct: the whole brain without cerebellum was dissected rapidly and frozen on dry ice; from tissue; host or cells: whole brain without cerebellum of orally dosed male Wistar rats, homogenate
T1 sequence (P21396 1-526): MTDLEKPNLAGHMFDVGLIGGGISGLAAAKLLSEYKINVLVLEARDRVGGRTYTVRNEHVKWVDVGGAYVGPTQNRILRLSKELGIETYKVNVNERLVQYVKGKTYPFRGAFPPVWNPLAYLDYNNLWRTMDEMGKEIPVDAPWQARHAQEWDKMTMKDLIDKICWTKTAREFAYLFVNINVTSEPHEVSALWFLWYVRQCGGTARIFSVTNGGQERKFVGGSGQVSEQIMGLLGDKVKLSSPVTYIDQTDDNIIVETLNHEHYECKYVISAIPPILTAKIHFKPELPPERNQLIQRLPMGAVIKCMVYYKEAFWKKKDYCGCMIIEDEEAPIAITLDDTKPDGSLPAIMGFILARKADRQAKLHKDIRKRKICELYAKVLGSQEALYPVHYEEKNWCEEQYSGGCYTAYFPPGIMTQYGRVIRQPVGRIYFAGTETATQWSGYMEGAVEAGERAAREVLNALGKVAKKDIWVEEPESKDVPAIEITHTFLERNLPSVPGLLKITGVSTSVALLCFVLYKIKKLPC
Nature of the test: Ex vivo monoamine oxidase inhibition assay, Type A. In kind it is in vivo. As to conditions: po. As for the experimental part:
(§1) The enzyme monoamine oxidase (MAO) exists in two catalytically distinguishable forms termed MAO-A and MAO-B. The ability of the compounds of the invention to inhibit MAO ex vivo in the rat was determined using a procedure adapted from the procedure set forth in The Journal of Pharmacology and Experimental Therapeutics, Vol. 248, No. 1, (1989), pp. 400-414.
(§2) The compound to be tested was administered to male Wistar rats orally. At specified times after administration the rats were decapitated and the whole brain without cerebellum was dissected rapidly and frozen on dry ice. The samples were stored at -80° C. until measurement of the MAO activity. After thawing, the tissues were homogenized in 5 volumes of 0.1 mol/l of potassium-phosphate buffer, pH 7.4, using all glass homogenisers. MAO activity was determined essentially as described by Wurtman and Axelrod. Biochem. Pharmacol. 12: 1439-1441, (1963).
(§3) The enzyme reaction was started by addition of 80 μl of the MAO-A substrate [^3 H]-5-HT (0.96 mCi/mmol, final amine concentration is 200 μM or of the MAO-B substrate [^14 C]PEA (0.192 mCi/mmol, final amine concentration is 200 μM and the incubation continued for 10 minutes at 37° C. Then, the reaction was stopped by addition of 200 μl of 2N HCl, and the deaminated metabolites were extracted by vigorous shaking for 10 minutes with 5 ml of diethylether (5-HT-extraction) or n-heptane (PEA-extraction). After centrifugation (1000×g; 30 sec) the water-phase was frozen in dry ice and the organic layer poured into plastic vials containing 5 ml of scintillation cocktail. Finally, the radioactivity was determined in a scintillation spectrometer. Reaction mixtures as described above but lacking the homogenate served as blanks.

In the next test the target is T2, MAO-B (Rattus norvegicus, UniProt P19643).
T2 construct: the whole brain without cerebellum was dissected rapidly and frozen on dry ice; from tissue; host or cells: whole brain without cerebellum of orally dosed male Wistar rats, homogenate
T2 sequence (P19643 1-520): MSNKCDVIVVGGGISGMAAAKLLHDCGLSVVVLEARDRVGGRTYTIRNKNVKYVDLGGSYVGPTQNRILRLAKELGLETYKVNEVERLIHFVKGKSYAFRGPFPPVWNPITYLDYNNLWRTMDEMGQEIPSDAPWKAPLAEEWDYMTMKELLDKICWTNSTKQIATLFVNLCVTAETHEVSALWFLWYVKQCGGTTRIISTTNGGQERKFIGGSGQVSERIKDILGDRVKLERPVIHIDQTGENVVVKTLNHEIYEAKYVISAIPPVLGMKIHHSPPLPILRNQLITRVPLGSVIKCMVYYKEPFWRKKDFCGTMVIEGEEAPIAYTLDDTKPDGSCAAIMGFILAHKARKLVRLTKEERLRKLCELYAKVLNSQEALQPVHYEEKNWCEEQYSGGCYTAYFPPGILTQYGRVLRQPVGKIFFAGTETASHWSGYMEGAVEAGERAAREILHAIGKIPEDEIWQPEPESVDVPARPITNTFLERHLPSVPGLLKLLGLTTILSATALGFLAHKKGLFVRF
Nature of the test: Ex vivo monoamine oxidase inhibition assay, Type B. In kind it is in vivo. As to conditions: po. As for the experimental part: as §1, §2, §3

A further test has as its target T3, Brain AChE (Rattus norvegicus, UniProt P37136).
T3 construct: corpora striata dissected free, weighed and homogenized in 19 volumes; from tissue; host or cells: corpora striata of male Wistar rats, whole homogenate
The test can be described thus: In vitro inhibition of acetylcholinesterase activity in rat striatum. The test is classed as biochemical. As for the experimental part: In Vitro Inhibition of Acetylcholinesterase Activity in Rat Striatum
The method described below was used in this invention for assaying cholinesterase activity. This is a modification of the method of Ellman et al., Biochem. Pharmacol. 7, 88 (1961).
4. A 2 mM stock solution of the test drug is made up in a suitable solvent and brought to volume with 0.5 mM DTNB (reagent 3).
Drugs are serially diluted (1:10) such that the final concentration (in cuvette) is 10^-4 M and screened for activity. If active, IC50 values are determined from the inhibitory activity of subsequent concentrations.
Male Wistar rats are decapitated, brains rapidly removed, corpora striata dissected free, weighed and homogenized in 19 volumes (approximately 7 mg protein/ml) of 0.05M phosphate buffer, pH 7.2 using a Potter-Elvehjem homogenizer. A 25 microliter aliquot of the homogenate is added to 1.0 milliter vehicle or various concentrations of the test drug and preincubated for 10 minutes at 37° C.
Enzyme activity is measured with the Beckman DU-50 spectrophotometer. This method can be used for IC50 determinations and for measuring kinetic constants.
Reagents are added to the blank and sample cuvettes as follows:
Blank values are determined for each run to control for non-enzymatic hydrolysis of substrate and these values are automatically subtracted by the kindata program available on kinetics soft-pac module. This program also calculates the rate of absorbance change for each cuvette.
Substrate concentration is 10 mM diluted 1:2 in assay yielding final concentration of 5 mM. DTNB concentration is 0.5 mM yielding 0.25 mM final concentration. [formula] IC50 values are calculated from log-probit analysis.

The subject of another test is monoamine oxidase. Particulars: literature reference (2); cited from earlier work.
The mark [1] stands for this setting: 50 mg/kg, p.o., 0.5 h, read-out: Ex vivo inhibition (%) of monoamine oxidase Type A.
Where [2] appears, read: 50 mg/kg, p.o., 1.0 h, read-out: Ex vivo inhibition (%) of monoamine oxidase Type A.
Setting [3] is: 50 mg/kg, p.o., 4.0 h, read-out: Ex vivo inhibition (%) of monoamine oxidase Type A.
The mark [4] stands for this setting: 50 mg/kg, p.o., 24.0 h, read-out: Ex vivo inhibition (%) of monoamine oxidase Type A.
[5] abbreviates: 50 mg/kg, p.o., 0.5 h, read-out: Ex vivo inhibition (%) of monoamine oxidase Type B.
The mark [6] stands for this setting: 50 mg/kg, p.o., 1.0 h, read-out: Ex vivo inhibition (%) of monoamine oxidase Type B.
Setting [7] is: 50 mg/kg, p.o., 4.0 h, read-out: Ex vivo inhibition (%) of monoamine oxidase Type B.
Setting [8] is: 50 mg/kg, p.o., 24.0 h, read-out: Ex vivo inhibition (%) of monoamine oxidase Type B.
Setting [9] is: rat striatum homogenate, pH 7.2, read-out: Inhibitory Concentration IC50 Brain AChE.

The values that follow come from patent publication US5580982A, “Substituted 3-(aminoalkylamino)-1,2-benzisoxazoles and related compounds” (priority 1995, dated 1996).

Where a name gives a salt, the structure may show the parent alone. Read-outs that look alike come from different tables or passages of the source.

T3 sequence (P37136 32-614): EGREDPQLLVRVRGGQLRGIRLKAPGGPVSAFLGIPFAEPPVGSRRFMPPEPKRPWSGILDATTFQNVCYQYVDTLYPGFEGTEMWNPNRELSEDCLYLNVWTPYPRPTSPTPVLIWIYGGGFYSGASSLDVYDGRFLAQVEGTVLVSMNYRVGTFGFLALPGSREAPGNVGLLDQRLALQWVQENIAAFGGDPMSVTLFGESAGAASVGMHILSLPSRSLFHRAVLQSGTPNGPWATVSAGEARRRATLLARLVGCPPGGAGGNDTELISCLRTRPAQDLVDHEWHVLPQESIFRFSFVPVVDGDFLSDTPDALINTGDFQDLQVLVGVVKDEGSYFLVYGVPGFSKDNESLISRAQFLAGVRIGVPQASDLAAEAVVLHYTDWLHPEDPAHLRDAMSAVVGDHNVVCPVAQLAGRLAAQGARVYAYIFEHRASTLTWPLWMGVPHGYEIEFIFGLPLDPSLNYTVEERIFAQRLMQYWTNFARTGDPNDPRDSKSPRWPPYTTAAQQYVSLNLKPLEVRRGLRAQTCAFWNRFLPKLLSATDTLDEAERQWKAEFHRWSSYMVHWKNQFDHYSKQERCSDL

Regarding `c1ccc2c(NCCN3CCOCC3)noc2c1` [N-[2-(4-Morpholinyl)ethyl]-1,2-benzisoxazol-3-amine], the inhibition at 50 mg/kg at MAO-A (setting [1]) worked out at 88%; at MAO-A (setting [2]), 85%; at MAO-A (setting [3]) it was 68%; at MAO-A (setting [4]), 3.5%; at MAO-B (setting [5]) it was 52%; on MAO-B (setting [6]) it was 45%. For the same molecule, the results for the inhibition at 50 mg/kg at MAO-B (setting [7]) and at MAO-B (setting [8]) were 33% and 0%, respectively.

`CN(C)C(=O)Oc1ccc2c(N(C)CCN3CCOCC3)noc2c1Br` [7-Bromo-3-[N-methyl, N,2-(4-morpholinyl)ethyl]amino-1,2-benzisoxazol-6-yl dimethylcarbamate] yielded an IC50 at Brain AChE of 2 µM.

As for `COc1ccc2c(N3CCN(c4ccncc4)CC3)noc2c1Br` [7-Bromo-6-methoxy-3-[1-(4-pyridyl)piperazinyl]-1,2-benzisoxazole], the IC50 on Brain AChE (setting [9]) was 14 µM.

Take `CC(C)NNC(=O)c1ccncc1` [iproniazid]: the “selectivity of monoamine oxidase inhibition (type A / type B)” value in the test on monoamine oxidase is “nonselective inhibitors”.

Take `CN(CCN1CCOCC1)c1noc2ccccc12` [N-methyI-N-[2-(4-morpholinyl)ethyl]-1,2-benzisoxazol-3-amine]: the inhibition at 50 mg/kg at MAO-A (setting [1]) amounted to 78%; on MAO-A (setting [2]) it was 66%; at MAO-A (setting [3]), 76%; on MAO-A (setting [4]), 11%; on MAO-B (setting [5]), 32%; at MAO-B (setting [6]) it was 25%. Besides, the inhibition at 50 mg/kg at MAO-B (setting [7]) came to 36%; on MAO-B (setting [8]) it was 0%.

With `C#CCN(C)C(C)Cc1ccccc1` (stereo not shown) [deprenyl], the “selectivity of monoamine oxidase inhibition (type A / type B)” value with monoamine oxidase was “selective inhibitors of the type B enzyme”.

In the case of `N[C@@H]1C[C@H]1c1ccccc1` (relative stereo) [tranylcypromine], the “selectivity of monoamine oxidase inhibition (type A / type B)” value in the test on monoamine oxidase is “nonselective inhibitors”.

Consider `C#CCN(C)CCCOc1ccc(Cl)cc1Cl` [Clorgyline], for which the “selectivity of monoamine oxidase inhibition (type A / type B)” value in the test with monoamine oxidase is listed as “selective inhibitor of the type A enzyme”.

As for `CN(C)C(=O)Oc1ccc2c(N3CCN(c4ccncc4)CC3)noc2c1` [3-[1-(4-Pyridyl)piperazinyl]-1,2-benzisoxazol-6-yl dimethylcarbamate], the IC50 against Brain AChE turned out to be 0.88 µM.

For `COc1ccc2c(N(C)CCC3CCN(Cc4ccccc4)CC3)noc2c1` [6-Methoxy-N-methyl-N-[2-[4-(1-phenylmethyl)piperdinyl]ethyl]-1,2-benzisoxazol-3-amine sesquihydrochloride], the IC50 on Brain AChE (setting [9]) is 4 µM.

Regarding `CNC(=O)Oc1ccc2c(N(C)CCN3CCOCC3)noc2c1` [3-[[2-(4-Morpholinyl)ethyl]methylamino]1,2-benzisoxazol-6-yl methylcarbamate], on Brain AChE, the IC50 amounted to 13 µM. Besides, the inhibition at 50 mg/kg at MAO-A (read-out: Ex vivo inhibition (%) of monoamine oxidase Type A, 50 mg/kg, p.o., 0.5 h) amounted to 26%; at MAO-A (read-out: Ex vivo inhibition (%) of monoamine oxidase Type A, 50 mg/kg, p.o., 1.0 h) it was 29%; at MAO-A (read-out: Ex vivo inhibition (%) of monoamine oxidase Type A, 50 mg/kg, p.o., 4.0 h), 42%; on MAO-A (read-out: Ex vivo inhibition (%) of monoamine oxidase Type A, 50 mg/kg, p.o., 24.0 h), 14%; at MAO-B (read-out: Ex vivo inhibition (%) of monoamine oxidase Type B, 50 mg/kg, p.o., 0.5 h), 19%; at MAO-B (read-out: Ex vivo inhibition (%) of monoamine oxidase Type B, 50 mg/kg, p.o., 1.0 h), 19%. Besides, the inhibition at 50 mg/kg was 28% on MAO-B (read-out: Ex vivo inhibition (%) of monoamine oxidase Type B, 50 mg/kg, p.o., 4.0 h) and 12% at MAO-B (read-out: Ex vivo inhibition (%) of monoamine oxidase Type B, 50 mg/kg, p.o., 24.0 h).

As for `C#CCN(C)Cc1ccccc1` [pargyline], in the test on monoamine oxidase, the “selectivity of monoamine oxidase inhibition (type A / type B)” value is reported as “selective inhibitors of the type B enzyme”.
